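Tested at 5 concentrations; 48 h exposure; 96-well plates; endpoints linearly interpolated, else capped at highest concentration. Here, GI50 denotes the concentration required for 50% inhibition of growth. TGI: concentration producing complete growth inhibition.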
Tests used:
Assay in all cases: growth of human tumour cells (NCI), 48 h
786-0 renal = test system: 786-0 renal
A498 renal = test system: A498 renal
A549 NSCLC = test system: A549 NSCLC
ACHN renal = test system: ACHN renal
BT-549 breast = test system: BT-549 breast
CAKI-1 renal = test system: CAKI-1 renal
CCRF-CEM leukemia = test system: CCRF-CEM leukemia
COLO 205 colon = test system: COLO 205 colon
DU-145 prostate = test system: DU-145 prostate
EKVX NSCLC = test system: EKVX NSCLC
HCC-2998 colon = test system: HCC-2998 colon
HCT-116 colon = test system: HCT-116 colon
HCT-15 colon = test system: HCT-15 colon
HL-60(TB) leukemia = test system: HL-60(TB) leukemia
HOP-62 NSCLC = test system: HOP-62 NSCLC
HOP-92 NSCLC = test system: HOP-92 NSCLC
HS 578T breast = test system: HS 578T breast
HT29 colon = test system: HT29 colon
IGROV1 ovarian = test system: IGROV1 ovarian
K-562 leukemia = test system: K-562 leukemia
KM12 colon = test system: KM12 colon
LOX IMVI melanoma = test system: LOX IMVI melanoma
M14 melanoma = test system: M14 melanoma
MALME-3M melanoma = test system: MALME-3M melanoma
MCF7 breast = test system: MCF7 breast
MDA-MB-231 breast = test system: MDA-MB-231 breast
MDA-MB-435 = test system: MDA-MB-435
MOLT-4 leukemia = test system: MOLT-4 leukemia
NCI-H226 lung = test system: NCI-H226 lung
NCI-H23 lung = test system: NCI-H23 lung
NCI-H460 lung = test system: NCI-H460 lung
NCI-H522 lung = test system: NCI-H522 lung
NCI/ADR-RES ovarian = test system: NCI/ADR-RES ovarian
OVCAR-3 ovarian = test system: OVCAR-3 ovarian
OVCAR-4 ovarian = test system: OVCAR-4 ovarian
OVCAR-5 ovarian = test system: OVCAR-5 ovarian
OVCAR-8 ovarian = test system: OVCAR-8 ovarian
PC-3 prostate = test system: PC-3 prostate
RPMI-8226 leukemia = test system: RPMI-8226 leukemia
RXF 393 renal = test system: RXF 393 renal
SF-268 CNS = test system: SF-268 CNS
SF-295 CNS = test system: SF-295 CNS
SF-539 CNS = test system: SF-539 CNS
SK-MEL-2 melanoma = test system: SK-MEL-2 melanoma
SK-MEL-28 melanoma = test system: SK-MEL-28 melanoma
SK-MEL-5 melanoma = test system: SK-MEL-5 melanoma
SK-OV-3 ovarian = test system: SK-OV-3 ovarian
SN12C renal = test system: SN12C renal
SNB-19 CNS = test system: SNB-19 CNS
SNB-75 CNS = test system: SNB-75 CNS
SR leukemia = test system: SR leukemia
SW-620 colon = test system: SW-620 colon
T-47D breast = test system: T-47D breast
TK-10 renal = test system: TK-10 renal
U251 CNS = test system: U251 CNS
UACC-257 melanoma = test system: UACC-257 melanoma
UACC-62 melanoma = test system: UACC-62 melanoma
UO-31 renal = test system: UO-31 renal

SMILES: NC(=O)c1c(NC(=O)c2ccc(C3CCCCC3)cc2)sc2c1CCC(=O)C2
- GI50 (786-0 renal): 663 nM
- TGI (786-0 renal): 2870 nM
- GI50 (A498 renal): 1990 nM
- TGI (A498 renal): 5840 nM
- GI50 (A549 NSCLC): 419 nM
- TGI (A549 NSCLC): 6080 nM
- GI50 (ACHN renal): 164 nM
- TGI (ACHN renal): 598 nM
- GI50 (BT-549 breast): 283 nM
- TGI (BT-549 breast): 1390 nM
- GI50 (CAKI-1 renal): 248 nM
- TGI (CAKI-1 renal): 1470 nM
- GI50 (CCRF-CEM leukemia): 142 nM
- GI50 (COLO 205 colon): 208 nM
- TGI (COLO 205 colon): 650 nM
- GI50 (DU-145 prostate): 1730 nM
- TGI (DU-145 prostate): > 100000 nM
- GI50 (EKVX NSCLC): 502 nM
- TGI (EKVX NSCLC): 3210 nM
- GI50 (HCC-2998 colon): 1100 nM
- TGI (HCC-2998 colon): 5410 nM
- GI50 (HCT-116 colon): 108 nM
- TGI (HCT-116 colon): 1300 nM
- GI50 (HCT-15 colon): 155 nM
- TGI (HCT-15 colon): 1260 nM
- GI50 (HL-60(TB) leukemia): 307 nM
- TGI (HL-60(TB) leukemia): > 30800 nM
- GI50 (HOP-62 NSCLC): 1480 nM
- TGI (HOP-62 NSCLC): 24100 nM
- GI50 (HOP-92 NSCLC): 246 nM
- TGI (HOP-92 NSCLC): 1040 nM
- GI50 (HS 578T breast): 383 nM
- TGI (HS 578T breast): 5710 nM
- GI50 (HT29 colon): 268 nM
- TGI (HT29 colon): 1810 nM
- GI50 (IGROV1 ovarian): 434 nM
- TGI (IGROV1 ovarian): 2030 nM
- GI50 (K-562 leukemia): 122 nM
- TGI (K-562 leukemia): > 100000 nM
- GI50 (KM12 colon): 349 nM
- TGI (KM12 colon): 5260 nM
- GI50 (LOX IMVI melanoma): 186 nM
- TGI (LOX IMVI melanoma): 1010 nM
- GI50 (M14 melanoma): 371 nM
- TGI (M14 melanoma): 1870 nM
- GI50 (MALME-3M melanoma): 314 nM
- TGI (MALME-3M melanoma): 1190 nM
- GI50 (MCF7 breast): 292 nM
- TGI (MCF7 breast): 2530 nM
- GI50 (MDA-MB-231 breast): 384 nM
- TGI (MDA-MB-231 breast): 1750 nM
- GI50 (MDA-MB-435): 611 nM
- TGI (MDA-MB-435): 2170 nM
- GI50 (MOLT-4 leukemia): 357 nM
- TGI (MOLT-4 leukemia): > 22400 nM
- GI50 (NCI-H226 lung): 705 nM
- TGI (NCI-H226 lung): 2610 nM
- GI50 (NCI-H23 lung): 314 nM
- TGI (NCI-H23 lung): 4340 nM
- GI50 (NCI-H460 lung): 645 nM
- TGI (NCI-H460 lung): 3640 nM
- GI50 (NCI-H522 lung): 227 nM
- TGI (NCI-H522 lung): 1450 nM
- GI50 (NCI/ADR-RES ovarian): 360 nM
- TGI (NCI/ADR-RES ovarian): 5040 nM
- GI50 (OVCAR-3 ovarian): 389 nM
- TGI (OVCAR-3 ovarian): 2620 nM
- GI50 (OVCAR-4 ovarian): 377 nM
- TGI (OVCAR-4 ovarian): 1710 nM
- GI50 (OVCAR-5 ovarian): 402 nM
- TGI (OVCAR-5 ovarian): 1980 nM
- GI50 (OVCAR-8 ovarian): 380 nM
- TGI (OVCAR-8 ovarian): > 20200 nM
- GI50 (PC-3 prostate): 130 nM
- TGI (PC-3 prostate): 1590 nM
- GI50 (RPMI-8226 leukemia): 135 nM
- TGI (RPMI-8226 leukemia): 596 nM
- GI50 (RXF 393 renal): 301 nM
- TGI (RXF 393 renal): 1190 nM
- GI50 (SF-268 CNS): 532 nM
- TGI (SF-268 CNS): 3460 nM
- GI50 (SF-295 CNS): 681 nM
- TGI (SF-295 CNS): 2500 nM
- GI50 (SF-539 CNS): 211 nM
- TGI (SF-539 CNS): 826 nM
- GI50 (SK-MEL-2 melanoma): 980 nM
- TGI (SK-MEL-2 melanoma): 3530 nM
- GI50 (SK-MEL-28 melanoma): 509 nM
- TGI (SK-MEL-28 melanoma): 2150 nM
- GI50 (SK-MEL-5 melanoma): 630 nM
- TGI (SK-MEL-5 melanoma): 1770 nM
- GI50 (SK-OV-3 ovarian): 1180 nM
- TGI (SK-OV-3 ovarian): 5890 nM
- GI50 (SN12C renal): 438 nM
- TGI (SN12C renal): 2830 nM
- GI50 (SNB-19 CNS): 426 nM
- TGI (SNB-19 CNS): 3010 nM
- GI50 (SNB-75 CNS): 1390 nM
- TGI (SNB-75 CNS): 3420 nM
- GI50 (SR leukemia): 108 nM
- GI50 (SW-620 colon): 142 nM
- TGI (SW-620 colon): 1660 nM
- GI50 (T-47D breast): 193 nM
- TGI (T-47D breast): 2340 nM
- GI50 (TK-10 renal): 373 nM
- TGI (TK-10 renal): 2300 nM
- GI50 (U251 CNS): 246 nM
- TGI (U251 CNS): 1620 nM
- GI50 (UACC-257 melanoma): 725 nM
- TGI (UACC-257 melanoma): 3230 nM
- GI50 (UACC-62 melanoma): 276 nM
- TGI (UACC-62 melanoma): 1430 nM
- GI50 (UO-31 renal): 177 nM
- TGI (UO-31 renal): 690 nM

Source: PubChem BioAssay (NCI)
